The nature of one data set: in vivo. Conditions: rat, sc, 1.35 mg/kg; for MRT: male, SD. More on the design: species or system SD rats. How it is done: The polypeptide derivative (1) and Tirzepatide were subcutaneously administered to male rats respectively in a single dose, blood samples of the male rats were then collected at different time points, and a concentration of the compound in plasma was determined by LC-MS/MS and related pharmacokinetic parameters were calculated, to investigate the pharmacokinetic characteristics of the compound in the rats.
16 male SD rats were randomly divided into two groups of eight rats each based on body weights. The rats were fasted for 12 h to 14 h, but water was allowed, one day before the administration. The rats were given food 4 h after the administration.
Sample collection: Before and after the administration, 0.1 mL of blood was sampled from the orbit of each rat under isoflurane anaesthesia, and then added in an EDTAK2 centrifuge tube in an ice bath to be centrifuged at 4° C. at 5000 rpm for 10 min. Then, plasma was collected.
Time points for blood collection of SC groups are 0, 5 min, 15 min, 30 min, 1 h, 2 h, 4 h, 6 h, 8 h, 24 h, 28 h, 32 h, and 48 h. All plasma samples were stored at −80° C. before analysis and testing.
The software Analyst 1.5.1 (Applied Biosystem) was used for data collection and system control. Automatic chromatographic peak integration was used for the sample. The sample concentration was regressed with a ratio of the sample peak area to the internal standard peak area as an index. Linear regression was used with a weighting factor of 1/X^2. Pharmacokinetic parameters were analyzed and processed with a non-compartmental model by using WinNonlin Professional v6.3 (Pharsight, USA). Cmax is a measured maximum plasma concentration. An area AUC(0→t) under a plasma concentration-time curve is obtained through ladder-shape calculation. Tmax is a time of a peak plasma concentration after the administration. The experimental data was expressed as “mean±standard deviation” (Mean±SD, n≥8) or “mean” (Mean, n=8).
Based on the plasma concentration data, the pharmacokinetic parameters after the administration calculated with the on-compartmental model by using WinNonlin V6.3 are shown in the following table.

On the set-up of data set [1]: species or system humans. The settings on record: human, in vivo. The source says:
According to disclosed data, an average clinical half-life of the control Tirzepatide in humans is 5.0 days.

The conditions of data set [2]: human, in vivo; cited from earlier work.

Where two headings read alike, the source gives them in different places. Square brackets hold non-standard residues; d marks the D form. Peptide text beside a SMILES is read from it. * marks the point of attachment. X1 = O=C(O)CCCCCCCCCCCCCCCCCCC(=O)NC(CCC(=O)NCCOCCOCCNC(=O)COCCOCC(=O)*)C(=O)O; Aib = CC(C)(N)C(=O)O

With `CC[C@H](C)[C@H](NC(=O)[C@H](CCCCN)NC(=O)[C@H](CC(=O)O)NC(=O)[C@H](CC(C)C)NC(=O)C(C)(C)NC(=O)[C@@H](NC(=O)[C@H](CO)NC(=O)[C@H](Cc1ccc(O)cc1)NC(=O)[C@H](CC(=O)O)NC(=O)[C@H](CO)NC(=O)[C@@H](NC(=O)[C@H](Cc1ccccc1)NC(=O)[C@@H](NC(=O)CNC(=O)[C@H](CC(=O)O)NC(=O)C(C)(C)NC(=O)[C@@H](N)Cc1ccc(O)cc1)[C@@H](C)O)[C@@H](C)O)[C@@H](C)CC)C(=O)N[C@@H](C)C(=O)N[C@@H](CCC(N)=O)C(=O)N[C@@H](CCCCNC(=O)COCCOCC(=O)NCCOCCOCCNC(=O)CCC(NC(=O)CCCCCCCCCCCCCCCCCCC(=O)O)C(=O)O)C(=O)N[C@@H](C)C(=O)N[C@@H](Cc1ccccc1)C(=O)N[C@H](C(=O)N[C@@H](CCC(N)=O)C(=O)N[C@@H](Cc1c[nH]c2ccccc12)C(=O)N[C@@H](CC(C)C)C(=O)N[C@@H](CC(C)C)C(=O)N[C@@H](C)C(=O)NCC(=O)NCC(=O)N1CCC[C@H]1C(=O)N[C@@H](CO)C(=O)N[C@@H](CO)C(=O)NCC(=O)N[C@@H](C)C(=O)N1CCC[C@H]1C(=O)N1CCC[C@H]1C(=O)N1CCC[C@H]1C(=O)N[C@@H](CO)C(N)=O)C(C)C` (some centres unmarked) [Polypeptide derivative (1)] (H-Y[Aib]DGTFTSDYSI[Aib]LDKIAQK(X1)AFVQWLLAGGPSSGAPPPS-NH2), in “in vivo”, the MRT was 33.6 h, the AUC(0-inf) stood at 89700 ng·h/mL, the AUC(0-t) turned out to be 70400 ng·h/mL and the AUMC0-inf came out at 3022264 h · h · ng · mL^−1. Moreover, in “in vivo”, the AUMC0-t is 1621331 h · h · ng · mL^−1, the peak concentration (Cmax) was 2070 ng/mL, the Kel came out at 0.0421 h⁻¹ and the time of peak concentration (Tmax) stood at 25.3 h. The molecule also gave a half-life in “in vivo” of 16.7 h. Further, the half-life in data set [1] was 189 h.

Consider `CC[C@H](C)[C@H](NC(=O)[C@H](CC(C)C)NC(=O)[C@H](Cc1c[nH]c2ccccc12)NC(=O)[C@H](CCC(N)=O)NC(=O)[C@@H](NC(=O)[C@H](Cc1ccccc1)NC(=O)[C@H](C)NC(=O)[C@H](CCCCNC(=O)COCCOCCNC(=O)COCCOCCNC(=O)CC[C@H](NC(=O)CCCCCCCCCCCCCCCCCCC(=O)O)C(=O)O)NC(=O)[C@H](CCC(N)=O)NC(=O)[C@H](C)NC(=O)[C@@H](NC(=O)[C@H](CCCCN)NC(=O)[C@H](CC(=O)O)NC(=O)[C@H](CC(C)C)NC(=O)C(C)(C)NC(=O)[C@@H](NC(=O)[C@H](CO)NC(=O)[C@H](Cc1ccc(O)cc1)NC(=O)[C@H](CC(=O)O)NC(=O)[C@H](CO)NC(=O)[C@@H](NC(=O)[C@H](Cc1ccccc1)NC(=O)[C@@H](NC(=O)CNC(=O)[C@H](CCC(=O)O)NC(=O)C(C)(C)NC(=O)[C@@H](N)Cc1ccc(O)cc1)[C@@H](C)O)[C@@H](C)O)[C@@H](C)CC)[C@@H](C)CC)C(C)C)C(=O)N[C@@H](C)C(=O)NCC(=O)NCC(=O)N1CCC[C@H]1C(=O)N[C@@H](CO)C(=O)N[C@@H](CO)C(=O)NCC(=O)N[C@@H](C)C(=O)N1CCC[C@H]1C(=O)N1CCC[C@H]1C(=O)N1CCC[C@H]1C(=O)N[C@@H](CO)C(N)=O` [Tirzepatide], for which the “average clinical half-life in humans” value in data set [2] is 120 h. In addition, in “in vivo”, the mean residence time (MRT) was 25.6 h, the AUC(0-inf) stood at 52100 ng·h/mL, the exposure AUC(0-t) worked out at 46700 ng·h/mL and the AUMC0-inf was 1352210 h · h · ng · mL^−1. In “in vivo”, the AUMC0-t is 1003190 h · h · ng · mL^−1, the peak concentration (Cmax) stood at 1540 ng/mL, the Kel was found to be 0.0680 h⁻¹ and the time to peak (Tmax) came to 20 h. This molecule also had a half-life in “in vivo” of 10.6 h.

By MRT is commonly meant a mean duration of stay, worked out from the concentration-time curve. As usually defined, the AUC(0-inf) is the area under the concentration-time curve extrapolated to infinity. What is called AUC(0-t) is the area under the concentration-time curve up to a stated or last time point. Higher therefore signals more exposure. A word on the Cmax: it is the peak of the concentration-time curve. Broadly, the Tmax is the time from dosing to the highest level. The term half-life denotes how long it takes for the measured level to halve.

Source of the values: patent US20240360193A1, “POLYPEPTIDE DERIVATIVE WITH DUAL GLP-1R AND GIPR TARGETING AGONISTIC EFFECT, AND PREPARATION METHOD AND USE THEREOF” (NANJING ZHIHE MEDICINE TECHNOLOGY CO., LTD., priority 2021, published 2024).
